Results as given in PubChem BioAssay AID256 (DTP/NCI, 2004).
“And” between values parts separate entries of the source, which are not always exact repeats. Equal values may be shown once. Toxic doses and inconclusive results are not listed. Rule for the calls: active = survival T/C of 150% or more; inactive = T/C below 125% in these data.

System: CD2F1 mice, L1210 leukemia ip, survival T/C
Assay: NCI In Vivo Anticancer Drug Screen. Data for tumor model L1210 Leukemia (intraperitoneal) in CD2F1 (CDF1) mice
Details: higher = longer survival
Summary of the method: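 Transplantable tumor in mice; compound-treated vs vehicle-treated groups. Read-out = treated/control ratio of the measured endpoint.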

[1] = endpoint: mean survival time, dose: 100.0 mg/kg/injection, schedule: Q04DX003 (ip), vehicle: saline with Tween-80
[2] = endpoint: mean survival time, dose: 200.0 mg/kg/injection, schedule: Q04DX003 (ip), vehicle: saline with Tween-80
[3] = endpoint: mean survival time, dose: 400.0 mg/kg/injection, schedule: Q04DX003 (ip), vehicle: saline with Tween-80
[4] = endpoint: mean survival time, dose: 100.0 mg/kg/injection, schedule: Q01DX009 (ip), vehicle: saline with Tween-80
[5] = endpoint: mean survival time, dose: 200.0 mg/kg/injection, schedule: Q01DX009 (ip), vehicle: saline with Tween-80
[6] = endpoint: mean survival time, dose: 400.0 mg/kg/injection, schedule: Q01DX009 (ip), vehicle: saline with Tween-80

Measured: T/C

COc1cc2c(cc1O)C(C)NCC2 (configuration not stated)
inactive: endpoint: mean survival time, dose: 75.0 mg/kg/injection, schedule: Q01DX001 (ip), vehicle: saline 109 % of control | endpoint: mean survival time, dose: 150.0 mg/kg/injection, schedule: Q01DX001 (ip), vehicle: saline 101 % of control

[Cl][Co]([Cl])[Cl].[NH-]CCCN.[NH-]CCC[NH-]
inactive: endpoint: mean survival time, dose: 100.0 mg/kg/injection, schedule: Q01DX009 (ip), vehicle: Klucel (hydroxypropylcellulose) (HPC) 113 % of control | endpoint: mean survival time, dose: 100.0 mg/kg/injection, schedule: Q04DX003 (ip), vehicle: saline 101 % of control | endpoint: mean survival time, dose: 200.0 mg/kg/injection, schedule: Q01DX009 (ip), vehicle: Klucel (hydroxypropylcellulose) (HPC) 113 % of control | endpoint: mean survival time, dose: 200.0 mg/kg/injection, schedule: Q04DX003 (ip), vehicle: saline 104 % of control | endpoint: mean survival time, dose: 400.0 mg/kg/injection, schedule: Q01DX009 (ip), vehicle: Klucel (hydroxypropylcellulose) (HPC) 104 % of control | endpoint: mean survival time, dose: 400.0 mg/kg/injection, schedule: Q04DX003 (ip), vehicle: saline 104 % of control

CCCCCC(CN(C)C)C(=O)/C=C\c1ccc(Cl)cc1Cl (configuration not stated)
inactive: endpoint: mean survival time, dose: 12.5 mg/kg/injection, schedule: Q01DX009 (ip), vehicle: alcohol 102 % of control | endpoint: mean survival time, dose: 25.0 mg/kg/injection, schedule: Q01DX009 (ip), vehicle: alcohol 102 % of control

C1CCC2C(C1)CC1CCCCC1C2C1C2CCCCC2CC2CCCCC21 (configuration not stated)
inactive: [1] 97 % of control | [2] 100 % of control | [3] 96 % of control

NCCc1c[nH]c2ccccc12
inactive: [4] 93 % of control | [5] 95 % of control | [6] 98 % of control

O=C(O)/C=C\C(=O)Nc1ccccc1
inactive: [4] 93 % of control | [1] 109 % of control | [5] 96 % of control | [2] 101 % of control | [6] 96 % of control | [3] 97 % of control

CCOC(=O)C(Cc1ccc(Cl)cc1)P(=O)(OCC)OCC (configuration not stated)
inactive: endpoint: mean survival time, dose: 100.0 mg/kg/injection, schedule: Q01DX001 (ip), vehicle: saline 106 % of control | endpoint: mean survival time, dose: 200.0 mg/kg/injection, schedule: Q01DX001 (ip), vehicle: saline 101 % of control | endpoint: mean survival time, dose: 400.0 mg/kg/injection, schedule: Q01DX001 (ip), vehicle: saline 106 % of control

CCOC(=O)C(C)OC(=O)c1ccccc1 (configuration not stated)
inactive: [4] 103 % of control | [1] 91 % of control | [5] 105 % of control | [2] 105 % of control | [6] 100 % of control | [3] 103 % of control

Cc1ccc(NC(=O)CI)cc1
inactive: endpoint: mean survival time, dose: 100.0 mg/kg/injection, schedule: Q04DX002 (ip), vehicle: other 102 % of control

O=C(O)C1C=CCC(C(=O)O)C1 (configuration not stated)
inactive: endpoint: mean survival time, dose: 50.0 mg/kg/injection, schedule: Q01DX009 (ip), vehicle: saline 101 % of control | endpoint: mean survival time, dose: 100.0 mg/kg/injection, schedule: Q01DX009 (ip), vehicle: saline 97 % of control | endpoint: mean survival time, dose: 200.0 mg/kg/injection, schedule: Q01DX009 (ip), vehicle: saline 101 % of control

Cc1nc2c(ncn2C2OC3COP(=O)(O)OC3C2O)c2nccn12 (configuration not stated)
inactive: endpoint: mean survival time, dose: 12.5 mg/kg/injection, schedule: Q01DX005 (ip), vehicle: water 95 % of control | endpoint: mean survival time, dose: 25.0 mg/kg/injection, schedule: Q01DX005 (ip), vehicle: water 100 % of control | endpoint: mean survival time, dose: 50.0 mg/kg/injection, schedule: Q01DX005 (ip), vehicle: water 90 % of control | endpoint: mean survival time, dose: 100.0 mg/kg/injection, schedule: Q01DX005 (ip), vehicle: water 106 % of control

CCc1ccccc1NC(=O)c1cccc(Cl)c1
inactive: [4] 98 % of control | [1] 94 % of control | [5] 91 % of control | [2] 96 % of control | [6] 96 % of control | [3] 96 % of control

COc1cc(C(CC(C)=O)c2cc3c(cc2OC(C)=O)OCO3)cc(OC)c1OC (configuration not stated) (tested in a mixture with another compound)
active: endpoint: median survival time, dose: 200.0 mg/kg/injection, schedule: Q01DX005 (ip), vehicle: saline with Tween-80 162 % of control and 168 % of control
inactive: endpoint: median survival time, dose: 15.0 mg/kg/injection, schedule: Q01DX005 (ip), vehicle: saline with Tween-80 103 % of control | endpoint: median survival time, dose: 30.0 mg/kg/injection, schedule: Q01DX005 (ip), vehicle: saline with Tween-80 101 % of control | endpoint: median survival time, dose: 43.2 mg/kg/injection, schedule: Q01DX005 (ip), vehicle: saline with Tween-80 105 % of control | endpoint: median survival time, dose: 60.0 mg/kg/injection, schedule: Q01DX005 (ip), vehicle: saline with Tween-80 114 % of control | endpoint: median survival time, dose: 72.0 mg/kg/injection, schedule: Q01DX005 (ip), vehicle: saline with Tween-80 113 % of control and 110 % of control | endpoint: median survival time, dose: 240.0 mg/kg/injection, schedule: Q01DX005 (ip), vehicle: saline with Tween-80 103 % of control
